Assay results from ChEMBL document CHEMBL3632534, “Design and synthesis of aloe-emodin derivatives as potent anti-tyrosinase, antibacterial and anti-inflammatory agents” (Bioorg Med Chem Lett, 2015).
One block for each molecule: values may come before it. Activity calls are given as the source filed them. No cut-off for these calls is given here.

How the values were obtained:
[1] = species on record: Mus musculus; assay: animal or person; settings: Kunming, Ear, po, read-out: INH
Description: Antiinflammatory activity in Kunming mouse assessed as inhibition of croton oil-induced ear swelling at 0.105 mmol/kg, ig administered for 3 days followed by croton oil challenge at 1 hrs post last dose measured after 4 hrs relative to control

[2] = biological target: T1, Tyrosinase (Agaricus bisporus) (UniProt O42713); assay: Inhibition of diphenolase activity of mushroom tyrosinase using L-DOPA as substrate assessed as formation of the DOPA chrome at 100 uM preincubated for 10 mins followed by substrate addition measured for 1 min by spectrophotometric analysis relative to control
T1 sequence (whole entry): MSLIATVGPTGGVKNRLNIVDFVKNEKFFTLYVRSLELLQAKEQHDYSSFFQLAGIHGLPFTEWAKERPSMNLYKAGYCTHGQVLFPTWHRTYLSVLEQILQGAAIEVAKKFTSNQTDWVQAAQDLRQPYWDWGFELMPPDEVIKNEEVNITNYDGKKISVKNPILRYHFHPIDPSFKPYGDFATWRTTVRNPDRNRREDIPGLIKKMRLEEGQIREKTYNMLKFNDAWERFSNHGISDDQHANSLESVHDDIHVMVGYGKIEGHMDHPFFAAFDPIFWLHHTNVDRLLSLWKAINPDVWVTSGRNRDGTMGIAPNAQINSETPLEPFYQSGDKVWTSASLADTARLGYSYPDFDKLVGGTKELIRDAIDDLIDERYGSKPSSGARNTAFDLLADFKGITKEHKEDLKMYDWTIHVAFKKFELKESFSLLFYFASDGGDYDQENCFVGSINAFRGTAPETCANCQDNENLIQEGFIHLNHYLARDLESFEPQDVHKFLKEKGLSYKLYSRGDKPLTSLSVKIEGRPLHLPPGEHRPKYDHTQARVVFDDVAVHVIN

[3] = biological target: T2, Tyrosinase (Agaricus bisporus, UniProt O42713)
T2 sequence (O42713 whole entry): T1 sequence (whole entry)
Description: Inhibition of diphenolase activity of mushroom tyrosinase using L-DOPA as substrate assessed as formation of the DOPA chrome preincubated for 10 mins followed by substrate addition measured for 1 min by spectrophotometric analysis

[4] = Drug degradation at 20 degC measured for 15 days; type: physicochemical; settings: read-out: Drug degradation
[5] = biological target: T1, Tyrosinase (Agaricus bisporus); assay: Reversible inhibition of diphenolase activity of mushroom tyrosinase assessed as L-DOPA oxidation at 10 to 50 uM
[6] = biological target: T1, Tyrosinase (Agaricus bisporus); assay: Competitive inhibition of diphenolase activity of mushroom tyrosinase assessed as L-DOPA oxidation at 15 to 45 uM by Lineweaver-Burk plot analysis
[7] = biological target: T1, Tyrosinase (Agaricus bisporus); assay: […] inhibition of diphenolase activity of mushroom tyrosinase assessed as L-DOPA oxidation at 10 to 50 uM

SMILES: CC(=O)Oc1cccc2c1C(=O)c1c(OC(C)=O)cc(C(=O)O)cc1C2=O [DIACEREIN]
- inhibition in vivo at 105 µmol/kg [1]: 39.1%

SMILES: CO/N=C/c1cc(O)c2c(c1)C(=O)c1cccc(O)c1C2=O
- inhibition [2]: 12.9%
- IC50 [3]: > 200 µM

SMILES: CCOCOc1cccc2c1C(=O)c1c(OCOCC)cc(C=O)cc1C2=O
- inhibition [2]: inactive

SMILES: C=CCOc1cccc2c1C(=O)c1c(OCC=C)cc(/C=N/OCC)cc1C2=O
- inhibition [2]: inactive

SMILES: COc1cccc2c1C(=O)c1c(OC)cc(/C=N/NC(N)=S)cc1C2=O
- inhibition [2]: 76.4%
- IC50 [3]: 28 µM

SMILES: COc1cccc2c1C(=O)c1c(OC)cc(C=O)cc1C2=O
- inhibition in vivo at 105 µmol/kg [1]: 42.6%
- inhibition [2]: inactive

SMILES: CCO/N=C/c1cc(O)c2c(c1)C(=O)c1cccc(O)c1C2=O
- inhibition [2]: 18.3%
- IC50 [3]: > 200 µM

SMILES: O=C1c2cccc(O)c2C(=O)c2c(O)cc(/C=N/O)cc21
- inhibition [2]: inactive

SMILES: C=CCOc1cccc2c1C(=O)c1c(OCC=C)cc(/C=N/OC)cc1C2=O
- inhibition [2]: inactive

More lines, main results first:

- inhibition [2]: inactive
SMILES: CCO/N=C/c1cc(OC)c2c(c1)C(=O)c1cccc(OC)c1C2=O

- inhibition [2]: 57%
- IC50 [3]: 83.2 µM
SMILES: C=CCOc1cccc2c1C(=O)c1c(OCC=C)cc(/C=N/O)cc1C2=O

- degraded at 360 h [4]: 10%
SMILES: OC[C@H]1O[C@@H](Oc2ccc(O)cc2)[C@H](O)[C@@H](O)[C@@H]1O [ARBUTIN]

- inhibition [2]: 65.3%
- IC50 [3]: 58.1 µM
SMILES: CCOCOc1cccc2c1C(=O)c1c(OCOCC)cc(/C=N/NC(N)=S)cc1C2=O

- inhibition [2]: 55.4%
- IC50 [3]: 92.4 µM
SMILES: C=CCOc1cccc2c1C(=O)c1c(OCC=C)cc(C=O)cc1C2=O

- inhibition [2]: inactive
SMILES: O=C1c2cccc(O)c2C(=O)c2c(O)cc(/C=N/OCc3ccccc3)cc21

- inhibition [2]: 73.6%
- IC50 [3]: 32.8 µM
- inhibition [5]: Active
- inhibition [6]: Active
SMILES: CCCCOc1cccc2c1C(=O)c1c(OCCCC)cc(CO)cc1C2=O

- inhibition [2]: 49.4%
- IC50 [3]: 109 µM
SMILES: O=Cc1cc(O)c2c(c1)C(=O)c1cccc(O)c1C2=O
- inhibition in vivo at 105 µmol/kg [1]: 50.6%

- inhibition [2]: 7.45%
- IC50 [3]: > 200 µM
SMILES: CCOCOc1cccc2c1C(=O)c1c(OCOCC)cc(CO)cc1C2=O

- inhibition [2]: inactive
SMILES: CO/N=C/c1cc(OC)c2c(c1)C(=O)c1cccc(OC)c1C2=O

- inhibition [2]: 9.86%
- IC50 [3]: > 200 µM
SMILES: COc1cccc2c1C(=O)c1c(OC)cc(CO)cc1C2=O
- inhibition in vivo at 105 µmol/kg [1]: 35.2%

- inhibition [2]: 58.6%
- IC50 [3]: 91 µM
SMILES: C=CCOc1cccc2c1C(=O)c1c(OCC=C)cc(CO)cc1C2=O

- inhibition [7]: Active
- inhibition [2]: 78.6%
- IC50 [3]: 24.5 µM
SMILES: NC(=S)N/N=C/c1cc(O)c2c(c1)C(=O)c1cccc(O)c1C2=O
